# Assay results taken from ChEMBL document CHEMBL1275514, “Surveillance of community-based reservoirs reveals the presence of CTX-M, imported AmpC, and OXA-30 beta-lactamases in urine isolates of Klebsiella pneumoniae and Escherichia coli in a U.S. community” (2008).
# Key:
# Format in all cases: functional
# [1] = test system: Klebsiella pneumoniae; test: Antimicrobial activity against CMY-2,CTX-M-14,TEM-2-like beta-lactamase producing Klebsiella pneumoniae isolate CUMCK2 by disk diffusion method
# [2] = test system: Escherichia coli; test: Antimicrobial activity against CMY-2 beta-lactamase producing Escherichia coli isolate CUMC243 by disk diffusion method
# [3] = test system: Escherichia coli; test: Antimicrobial activity against CMY-2,CTX-M-14,TEM-2-like beta-lactamase producing Escherichia coli isolate CUMC215 by disk diffusion method
# [4] = test system: Escherichia coli; test: Antimicrobial activity against CTX-M-14-like, TEM-1-like beta-lactamase producing Escherichia coli isolate CUMC203 by disk diffusion method
# [5] = test system: Escherichia coli; test: Antimicrobial activity against CTX-M-14-like, TEM-1-like beta-lactamase producing Escherichia coli isolate CUMC204 by disk diffusion method
# [6] = test system: Escherichia coli; test: Antimicrobial activity against CTX-M-14-like, TEM-1-like beta-lactamase producing Escherichia coli isolate CUMC233 by disk diffusion method
# [7] = test system: Escherichia coli; test: Antimicrobial activity against CTX-M-14, TEM-1-like beta-lactamase producing Escherichia coli isolate CUMC241 by disk diffusion method
# [8] = test system: Escherichia coli; test: Antimicrobial activity against CTX-M-14, TEM-1-like beta-lactamase producing Escherichia coli isolate CUMC244 by disk diffusion method
# [9] = test system: Escherichia coli; test: Antimicrobial activity against CTX-M-14, TEM-1-like beta-lactamase producing Escherichia coli isolate CUMC248 by disk diffusion method
# [10] = test system: Klebsiella pneumoniae; test: Antimicrobial activity against SHV-12-like, SHV-1-like beta-lactamase producing Klebsiella pneumoniae isolate CUMCK9 by disk diffusion method
# [11] = test system: Klebsiella pneumoniae; test: Antimicrobial activity against CMY-2,CTX-M-14,TEM-2-like beta-lactamase producing Klebsiella pneumoniae isolate CUMCK2 by disk diffusion method in presence of beta-lactamase inhibitor clavulanic acid
# [12] = test system: Escherichia coli; test: Antimicrobial activity against CMY-2,CTX-M-14,TEM-2-like beta-lactamase producing Escherichia coli isolate CUMC215 by disk diffusion method in presence of beta-lactamase inhibitor clavulanic acid
# [13] = test system: Escherichia coli; test: Antimicrobial activity against CMY-2 beta-lactamase producing Escherichia coli isolate CUMC243 by disk diffusion method in presence of beta-lactamase inhibitor clavulanic acid
# [14] = test system: Escherichia coli; test: Antimicrobial activity against CMY-2 beta-lactamase producing Escherichia coli isolate CUMC181 by disk diffusion method in presence of beta-lactamase inhibitor clavulanic acid
# [15] = test system: Escherichia coli; test: Antimicrobial activity against CMY-2 beta-lactamase producing Escherichia coli isolate CUMC190 by disk diffusion method in presence of beta-lactamase inhibitor clavulanic acid
# [16] = test system: Escherichia coli; test: Antimicrobial activity against CMY-2 beta-lactamase producing Escherichia coli isolate CUMC201 by disk diffusion method in presence of beta-lactamase inhibitor clavulanic acid
# [17] = test system: Escherichia coli; test: Antimicrobial activity against CMY-2 beta-lactamase producing Escherichia coli isolate CUMC214 by disk diffusion method in presence of beta-lactamase inhibitor clavulanic acid
# [18] = test system: Escherichia coli; test: Antimicrobial activity against CMY-2 beta-lactamase producing Escherichia coli isolate CUMC223 by disk diffusion method in presence of beta-lactamase inhibitor clavulanic acid
# [19] = test system: Escherichia coli; test: Antimicrobial activity against CMY-2,TEM-2-like beta-lactamase producing Escherichia coli isolate CUMC224 by disk diffusion method in presence of beta-lactamase inhibitor clavulanic acid
# [20] = test system: Escherichia coli; test: Antimicrobial activity against CMY-2 beta-lactamase producing Escherichia coli isolate CUMC225 by disk diffusion method in presence of beta-lactamase inhibitor clavulanic acid
# [21] = test system: Escherichia coli; test: Antimicrobial activity against CTX-M-15,OXA-30 beta-lactamase producing Escherichia coli isolate CUMC245 by disk diffusion method in presence of beta-lactamase inhibitor clavulanic acid
# [22] = test system: Escherichia coli; test: Antimicrobial activity against CTX-M-14, TEM-1 beta-lactamase producing Escherichia coli isolate CUMC174 by disk diffusion method in presence of beta-lactamase inhibitor clavulanic acid
# [23] = test system: Escherichia coli; test: Antimicrobial activity against CTX-M-14, TEM-1-like beta-lactamase producing Escherichia coli isolate CUMC176 by disk diffusion method in presence of beta-lactamase inhibitor clavulanic acid
# [24] = test system: Escherichia coli; test: Antimicrobial activity against CTX-M-14, TEM-1-like beta-lactamase producing Escherichia coli isolate CUMC180 by disk diffusion method in presence of beta-lactamase inhibitor clavulanic acid
# [25] = test system: Escherichia coli; test: Antimicrobial activity against CTX-M-14-like, TEM-1-like beta-lactamase producing Escherichia coli isolate CUMC192 by disk diffusion method in presence of beta-lactamase inhibitor clavulanic acid
# [26] = test system: Escherichia coli; test: Antimicrobial activity against CTX-M-14-like, TEM-1-like beta-lactamase producing Escherichia coli isolate CUMC203 by disk diffusion method in presence of beta-lactamase inhibitor clavulanic acid
# [27] = test system: Escherichia coli; test: Antimicrobial activity against CTX-M-14-like, TEM-1-like beta-lactamase producing Escherichia coli isolate CUMC204 by disk diffusion method in presence of beta-lactamase inhibitor clavulanic acid
# [28] = test system: Escherichia coli; test: Antimicrobial activity against CTX-M-14-like, TEM-1-like beta-lactamase producing Escherichia coli isolate CUMC233 by disk diffusion method in presence of beta-lactamase inhibitor clavulanic acid
# [29] = test system: Escherichia coli; test: Antimicrobial activity against CTX-M-14, TEM-1-like beta-lactamase producing Escherichia coli isolate CUMC241 by disk diffusion method in presence of beta-lactamase inhibitor clavulanic acid
# [30] = test system: Escherichia coli; test: Antimicrobial activity against CTX-M-14, TEM-1-like beta-lactamase producing Escherichia coli isolate CUMC244 by disk diffusion method in presence of beta-lactamase inhibitor clavulanic acid
# [31] = test system: Escherichia coli; test: Antimicrobial activity against CTX-M-14, TEM-1-like beta-lactamase producing Escherichia coli isolate CUMC248 by disk diffusion method in presence of beta-lactamase inhibitor clavulanic acid
# [32] = test system: Klebsiella pneumoniae; test: Antimicrobial activity against SHV-12-like, SHV-1-like beta-lactamase producing Klebsiella pneumoniae isolate CUMCK9 by disk diffusion method in presence of beta-lactamase inhibitor clavulanic acid
# [33] = test system: Escherichia coli; test: Antimicrobial activity against CTX-M-14-like, TEM-1-like beta-lactamase producing Escherichia coli isolate CUMC192 by disk diffusion method
# [34] = test system: Escherichia coli; test: Antimicrobial activity against CTX-M-14, TEM-1-like beta-lactamase producing Escherichia coli isolate CUMC180 by disk diffusion method
# [35] = test system: Escherichia coli; test: Antimicrobial activity against CTX-M-14, TEM-1-like beta-lactamase producing Escherichia coli isolate CUMC176 by disk diffusion method
# [36] = test system: Escherichia coli; test: Antimicrobial activity against CTX-M-14, TEM-1 beta-lactamase producing Escherichia coli isolate CUMC174 by disk diffusion method
# [37] = test system: Escherichia coli; test: Antimicrobial activity against CTX-M-15,OXA-30 beta-lactamase producing Escherichia coli isolate CUMC245 by disk diffusion method
# [38] = test system: Escherichia coli; test: Antimicrobial activity against CMY-2 beta-lactamase producing Escherichia coli isolate CUMC225 by disk diffusion method
# [39] = test system: Escherichia coli; test: Antimicrobial activity against CMY-2,TEM-2-like beta-lactamase producing Escherichia coli isolate CUMC224 by disk diffusion method
# [40] = test system: Escherichia coli; test: Antimicrobial activity against CMY-2 beta-lactamase producing Escherichia coli isolate CUMC223 by disk diffusion method
# [41] = test system: Escherichia coli; test: Antimicrobial activity against CMY-2 beta-lactamase producing Escherichia coli isolate CUMC214 by disk diffusion method
# [42] = test system: Escherichia coli; test: Antimicrobial activity against CMY-2 beta-lactamase producing Escherichia coli isolate CUMC201 by disk diffusion method
# [43] = test system: Escherichia coli; test: Antimicrobial activity against CMY-2 beta-lactamase producing Escherichia coli isolate CUMC190 by disk diffusion method
# [44] = test system: Escherichia coli; test: Antimicrobial activity against CMY-2 beta-lactamase producing Escherichia coli isolate CUMC181 by disk diffusion method
structure (smiles),measurement,setting,value
CO/N=C(\C(=O)N[C@@H]1C(=O)N2C(C(=O)O)=C(COC(C)=O)CS[C@H]12)c1csc(N)n1 [CEFOTAXIME],inhibition zone (IZ),[1],11 mm
same,inhibition zone (IZ),[2],11 mm
same,inhibition zone (IZ),[3],7 mm
same,inhibition zone (IZ),[4],17 mm
same,inhibition zone (IZ),[5],15 mm
same,inhibition zone (IZ),[6],18 mm
same,inhibition zone (IZ),[7],13 mm
same,inhibition zone (IZ),[8],14 mm
same,inhibition zone (IZ),[9],12 mm
same,inhibition zone (IZ),[10],18 mm
same,inhibition zone (IZ),[11],16 mm
same,inhibition zone (IZ),[12],8 mm
same,inhibition zone (IZ),[13],12 mm
same,inhibition zone (IZ),[14],13 mm
same,inhibition zone (IZ),[15],11 mm
same,inhibition zone (IZ),[16],10 mm
same,inhibition zone (IZ),[17],12 mm
same,inhibition zone (IZ),[18],13 mm
same,inhibition zone (IZ),[19],12 mm
same,inhibition zone (IZ),[20],11 mm
same,inhibition zone (IZ),[21],30 mm
same,inhibition zone (IZ),[22],30 mm
same,inhibition zone (IZ),[23],31 mm
same,inhibition zone (IZ),[24],30 mm
same,inhibition zone (IZ),[25],30 mm
same,inhibition zone (IZ),[26],32 mm
same,inhibition zone (IZ),[27],30 mm
same,inhibition zone (IZ),[28],32 mm
same,inhibition zone (IZ),[29],30 mm
same,inhibition zone (IZ),[30],29 mm
same,inhibition zone (IZ),[31],28 mm
same,inhibition zone (IZ),[32],32 mm
same,inhibition zone (IZ),[33],15 mm
same,inhibition zone (IZ),[34],17 mm
same,inhibition zone (IZ),[35],17 mm
same,inhibition zone (IZ),[36],16 mm
same,inhibition zone (IZ),[37],6 mm
same,inhibition zone (IZ),[38],11 mm
same,inhibition zone (IZ),[39],15 mm
same,inhibition zone (IZ),[40],13 mm
same,inhibition zone (IZ),[41],13 mm
same,inhibition zone (IZ),[42],12 mm
same,inhibition zone (IZ),[43],6 mm
same,inhibition zone (IZ),[44],13 mm
CC(C)(O/N=C(\C(=O)N[C@@H]1C(=O)N2C(C(=O)[O-])=C(C[n+]3ccccc3)CS[C@H]12)c1csc(N)n1)C(=O)O [CEFTAZIDIME],inhibition zone (IZ),[1],8 mm
same,inhibition zone (IZ),[2],7 mm
same,inhibition zone (IZ),[3],6 mm
same,inhibition zone (IZ),[4],28 mm
same,inhibition zone (IZ),[5],27 mm
same,inhibition zone (IZ),[6],31 mm
same,inhibition zone (IZ),[7],28 mm
same,inhibition zone (IZ),[8],26 mm
same,inhibition zone (IZ),[9],25 mm
same,inhibition zone (IZ),[10],6 mm
same,inhibition zone (IZ),[11],12 mm
same,inhibition zone (IZ),[12],7 mm
same,inhibition zone (IZ),[13],12 mm
same,inhibition zone (IZ),[14],14 mm
same,inhibition zone (IZ),[15],13 mm
same,inhibition zone (IZ),[16],12 mm
same,inhibition zone (IZ),[17],13 mm
same,inhibition zone (IZ),[18],13 mm
same,inhibition zone (IZ),[19],13 mm
same,inhibition zone (IZ),[20],11 mm
same,inhibition zone (IZ),[21],29 mm
same,inhibition zone (IZ),[22],30 mm
same,inhibition zone (IZ),[23],33 mm
same,inhibition zone (IZ),[24],31 mm
same,inhibition zone (IZ),[25],30 mm
same,inhibition zone (IZ),[26],29 mm
same,inhibition zone (IZ),[27],30 mm
same,inhibition zone (IZ),[28],32 mm
same,inhibition zone (IZ),[29],32 mm
same,inhibition zone (IZ),[30],29 mm
same,inhibition zone (IZ),[31],29 mm
same,inhibition zone (IZ),[32],26 mm
same,inhibition zone (IZ),[33],28 mm
same,inhibition zone (IZ),[34],29 mm
same,inhibition zone (IZ),[35],30 mm
same,inhibition zone (IZ),[36],27 mm
same,inhibition zone (IZ),[37],16 mm
same,inhibition zone (IZ),[38],6 mm
same,inhibition zone (IZ),[39],7 mm
same,inhibition zone (IZ),[40],6 mm
same,inhibition zone (IZ),[41],8 mm
same,inhibition zone (IZ),[42],8 mm
same,inhibition zone (IZ),[43],8 mm
same,inhibition zone (IZ),[44],6 mm
